Measurements taken from US7220554B2, “Methods for identifying inhibitors” (priority 2003, dated 2007).
“Also recorded” adds a separate entry of the source. Non-standard residues stand in square brackets, D forms with d. Residues, ends and D or L forms follow the SMILES beside them. *: point of attachment. Nle = CCCC[C@H](N)C(=O)O; Cbz = O=C(OCc1ccccc1)*; OtBu = CC(C)(C)O*

Key:
[1] = test system: Vif-dependent down modulation of APOBEC3G-Myc; assay: Western immunoblotting of APOBEC3G-Myc in cotransfected 293T cultures that contain or lack Vif; format: cell-based, human; conditions: for quantity of APOBEC3G-Myc in the cultures that contained Vif: incubated 10 hours, FIG. 11A
Source text: (§1) Expression vectors: pHIV-gpt(wt) and its derivative pHIV-gpt(Δvif) were previously described (Madani & Kabat, J. Virol. 72, 10251–10255, 1998; Page et al., J Virol 64, 5270–5276, 1990; Madani & Kabat, J. Virol. 74, 5982–5987, 2000). pcDNA3.1-Vif was donated by D. Gabuzda (Dana-Farber Cancer Institute, Harvard, Boston, Mass.). Rev-dependent plasmids for expression of the Vif mutants Δ2, Δ5, Δ6, Δ7, Δ9, Δ10, Δ12 and Δ13 (Simon et al., J. Virol. 73, 2675–2681, 1999) were provided by M. Malim (Medical Research Council, Cambridge, UK) and were coexpressed with pHIV-gpt(Δvif). APOBEC3G cDNA was cloned from H9 cells (nonpermissive) by reverse transcriptase-PCR (Barnes, Proc. Natl. Acad. Sci. USA 91, 2216–2220, 1994; Sambrook et al., Molecular Cloning. A Laboratory Manual, Chapter 14, 14.5–14.34., CSHL Press, Cold Spring Harbor, 1989) using primers complementary to the 5′ and 3′ ends of APOBEC3G coding region (Sheehy et al., Nature 418, 646–650, 2002) (upstream primer, 5′-[…]-3′ (SEQ ID NO: 15) containing an XhoI restriction site [underlined]; downstream primer, 5′-[…]-3′ (SEQ ID NO: 16) containing a SfuI restriction site [underlined]). The cDNA was cloned between XhoI and SfuI into the pcDNA3.1/Myc-His C mammalian expression vector (Invitrogen) to obtain the pcDNA3.1-APOBEC3G-Myc vector. The pSVIIIEnv vector was used to pseudotype HIV-gpt virions (Helseth et al., J. Virol. 64, 2416–2420, 1990). Transfections employed PolyFect reagent (Qiagen, Inc.) according to the manufacturer's instructions, with equimolar ratios of all plasmids and with harvests after 36 hours unless otherwise mentioned. Viruses: HIV-gpt virions were produced and titered as previously described (Page et al., J Virol 64, 5270–5276, 1990; Page et al., J Virol 66, 524–533, 1992; Platt et al., J. Virol. 75, 12266–12278, 2001). For viral purifications, 27 ml of the virus-containing media from 293T cells were pelleted through 2 ml of a 20% sucrose at 100,000 g for 1.5 hours. Virions were resuspended in TSE (0.1 M NaCl, 1 mM EDTA, 0.01M Tris-Cl, pH 7.4), and centrifuged to equilibrium in 5 ml 20–60% sucrose gradients in TSE at 200,000 g for 2.5 hours. Virus-containing fractions were detected by immunoblotting using HIV Immunoglobulin serum (AIDS Research & Reference Reagent Program, Division of AIDS, NIAID, NIH: contributed by NABI and NHLBI). Peak fractions were pooled, diluted with TSE, and pelleted through 20% sucrose at 100,000 g for two hours. Analysis of proteins and RNAs: Extracts of cotransfected 293T and COS7 cultures were prepared using either TX (1% Triton X-100, 150 mM NaCl, 10 mM Tris-Cl, pH 7.5, 1 mM MgCl) or RIPA (50 mM Tris-Ci pH 7.4, 1% Nonidet P40, 0.1% sodium deoxycholate, 150 mM NaCl) buffers with complete protease inhibitors (Roche), followed by centrifugation at 1,500 g for 5 minutes to sediment nuclei. Extracts were adjusted to equivalent protein concentrations using the Bradford reagent (BioRad Laboratories), and equal aliquots were then used for Western immunoblotting (Marin et al., J. Virol. 74, 8085–8093, 2000) or for immunoprecipitations (Klippel et al., Mol. Cell. Biol. 14, 2675–2685, 1994) using the antibodies HIV-1 HXB2 Vif rabbit antiserum #2221, (AIDS Research and Reference Reagent Program, Division of AIDS, NIAID, NIH: contributed by Dr. D. Gabuzda), Myc-specific monoclonal antibody clone 9E10 (Sigma) (Marin et al., J. Virol. 74, 8085–8093, 2000), or the ubiquitin-specific mouse monoclonal antibody (Zymed). […] Where indicated, cultures were preincubated with 50 μM concentrations of the proteasome inhibitors ALLN, MG-132, or Proteasome Inhibitor-I (Calbiochem).

[2] = test system: total cellular polyubiquitinated proteins; assay: Western blot of total cell culture extracts with ubiquitin-specific antibody; format: cell-based, human; conditions: 293T; for amounts of total polyubiquitinated proteins (inhibitor activity in cultures with and without Vif): 50 μM inhibitor; for quantities of total cellular polyubiquitinated proteins (inhibitor activity in both cultures): preincubated 6 hours, FIG. 9B
Source text: as §1

[3] = test system: APOBEC3G-Myc; assay: Immunofluorescence microscopy of Vif and APOBEC3G-Myc in cotransfected COS7 cells; format: cell-based, African green monkey; conditions: ALLN in DMSO, FIG. 5B
Protocol: For immunofluorescence, COS7 cells were used because they are more adherent than 293T cells. Cells cultured in Permanox chamber slides (Nalge Nunc International) were fixed in 5% formaldehyde and 2% sucrose in PBS (Invitrogen) at room temperature for 20 minutes, and permeabilized with 1% Triton X-100 in PBS with 10% sucrose for 30 minutes. Primary antibodies were Vif antiserum #2221 or the Myc-specific monoclonal antibody 9E10. Secondary fluorescent antibodies were Alexa Fluor 488 goat anti-rabbit IgG(H+L) and Alexa Fluor 594 goat anti-mouse IgG (H+L) (Molecular Probes Inc), which reacted only with their species-specific primary antibodies. Slides were mounted in FluoroGuard (BioRad Laboratories), and observed with a Zeiss Axiovert 200M deconvolution microscope. The percentage of double-positive cells in FIG. 5B is defined as the percentage of the Vif-positive cells and that contained APOBEC3G-Myc. RNA extraction and Northern blot analyses were previously described (Tailor et al., Proc. Natl. Acad. Sci. USA 96, 927–932, 1999). A cDNA probe for the S2 ribosomal protein was used as a loading control.

[4] = test system: Vif-mediated elimination of YFP-APOBEC3G; assay: Fluorescence of YFP-APOBEC3G in 293T cultures cotransfected with Vif; format: cell-based, human; conditions: ALLN for eight hours
Source text: Using methods essentially similar to those described in Example 1, a vector was constructed that encodes a chimeric protein containing the yellow fluorescent protein (YFP) at the amino terminus and APOBEC3G at the carboxyl terminus (YFP-APOBEC3G; SEQ ID NOs: 3 and 4). Cotransfection of plasmids that encode this chimera and Vif into human 293T cell cultures results in only a few fluorescent cells, consistent with a Vif-induced degradation (FIG. 13A, top two panels). In contrast, cotransfection with a vector lacking Vif results in a much larger fraction of fluorescent cells.

[5] = test system: polyubiquitinated APOBEC3G; assay: Ni-NTA purification of APOBEC3G-Myc in 8M urea and immunoblotting with ubiquitin-specific antibody; format: cell-based, human; conditions: 293T; ALLN 10 hours; FIG. 11B
Source text: Expression vectors: pHIV-gpt(wt) and its derivative pHIV-gpt(Δvif) were previously described (Madani & Kabat, J. Virol. 72, 10251–10255, 1998; Page et al., J Virol 64, 5270–5276, 1990; Madani & Kabat, J. Virol. 74, 5982–5987, 2000). pcDNA3.1-Vif was donated by D. Gabuzda (Dana-Farber Cancer Institute, Harvard, Boston, Mass.). Rev-dependent plasmids for expression of the Vif mutants Δ2, Δ5, Δ6, Δ7, Δ9, Δ10, Δ12 and Δ13 (Simon et al., J. Virol. 73, 2675–2681, 1999) were provided by M. Malim (Medical Research Council, Cambridge, UK) and were coexpressed with pHIV-gpt(Δvif). APOBEC3G cDNA was cloned from H9 cells (nonpermissive) by reverse transcriptase-PCR (Barnes, Proc. Natl. Acad. Sci. USA 91, 2216–2220, 1994; Sambrook et al., Molecular Cloning. A Laboratory Manual, Chapter 14, 14.5–14.34., CSHL Press, Cold Spring Harbor, 1989) using primers complementary to the 5′ and 3′ ends of APOBEC3G coding region (Sheehy et al., Nature 418, 646–650, 2002) (upstream primer, 5′-[…]-3′ (SEQ ID NO: 15) containing an XhoI restriction site [underlined]; downstream primer, 5′-[…]-3′ (SEQ ID NO: 16) containing a SfuI restriction site [underlined]). […] Virus-containing fractions were detected by immunoblotting using HIV Immunoglobulin serum (AIDS Research & Reference Reagent Program, Division of AIDS, NIAID, NIH: contributed by NABI and NHLBI). […]

Structure (SMILES)	control protein α-tubulin ([1]; 50 μM inhibitor, 6–10 hour)	quantities of APOBEC3G-Myc in the cultures that contained Vif ([1]; 50 μM inhibitor, 6–10 hour)	quantities of APOBEC3G-Myc in the cultures that lacked Vif ([1]; 50 μM inhibitor, 6–10 hour)	quantity of APOBEC3G-Myc in the cultures that contained Vif [1]	quantities of APOBEC3G-Myc in the cultures that contained Vif ([1]; preincubated 6 hours, FIG. 9B)	quantities of APOBEC3G-Myc in the cultures that lacked Vif ([1]; preincubated 6 hours, FIG. 9B)	amounts of total polyubiquitinated proteins (inhibitor activity in cultures with and without Vif) [2]	quantities of total cellular polyubiquitinated proteins (inhibitor activity in both cultures) [2]	percentage of cells that coexpressed wild-type Vif and APOBEC3G-Myc [3]	cells with YFP-APOBEC3G fluorescence in the culture that contains Vif [4]	amount of polyubiquitinated APOBEC3G-Myc, effect of proteasome inhibitor [5]
CC[C@H](C)[C@H](NC(=O)OCc1ccccc1)C(=O)N[C@@H](CCC(=O)OC(C)(C)C)C(=O)N[C@@H](C)C(=O)N[C@H](C=O)CC(C)C [Proteasome Inhibitor-I] (Cbz-IE(OtBu)AL-aldehyde)	no effect	increased the quantities of APOBEC3G-Myc	not in the cultures that lacked Vif	increased the quantity of APOBEC3G-Myc	increased the quantities of APOBEC3G-Myc	not in the cultures that lacked Vif	active in both cultures	active in both cultures	–	–	–
CC(C)C[C@@H](C=O)NC(=O)[C@H](CC(C)C)NC(=O)[C@H](CC(C)C)NC(=O)OCc1ccccc1 [MG-132] (Cbz-Leu-Leu-Leu-aldehyde)	no effect	increased the quantities of APOBEC3G-Myc	not in the cultures that lacked Vif	increased the quantity of APOBEC3G-Myc	increased the quantities of APOBEC3G-Myc	not in the cultures that lacked Vif	active in both cultures	active in both cultures	–	–	–
CCCC[C@@H](C=O)NC(=O)[C@H](CC(C)C)NC(=O)[C@H](CC(C)C)NC(C)=O [ALLN] (Ac-Leu-Leu-[Nle]-aldehyde)	no effect	increased the quantities of APOBEC3G-Myc	not in the cultures that lacked Vif	increased the quantity of APOBEC3G-Myc	increased the quantities of APOBEC3G-Myc	not in the cultures that lacked Vif	active in both cultures	active in both cultures	dramatic increase in coexpression; also recorded: this decrease was alleviated by ALLN	reverses the Vif-dependent elimination of the chimeric protein; also recorded: blocks Vif-mediated elimination of YFP-APOBEC3G; also recorded: accumulate in many more cells	substantially increased; also recorded: greatly increased
